Assay results as given in ChEMBL document CHEMBL1150714, “1,3,7-Trimethylguanine from the Sponge Latrunculia brevis” (J Nat Prod, 1987).

Tested on: P388
Assay: Cytotoxicity against mouse P388 cells
Format: functional, cell-based

Cn1c(=O)c2c(ncn2C)n(C)c1=N
EC50: > 10 µg/mL
